Measurements as given in patent US8222270B2 (Medicis Pharmaceutical Corporation, priority 2008, dated 2012).

What was measured:
[1] = Acute single dose toxicity (oral, intraperitoneal, subcutaneous, intravenous); assay type: in vivo
[2] = Repeat dose dermal toxicity studies; assay type: in vivo, rats
Protocol: A dose-related decrease in body weight of male rats was also observed. No systemic toxicity was found at doses up to 5 mg/kg three days per week for 4 weeks or at doses up to 2.5 mg/kg three days per week for 16 weeks.

Question: With `CC(C)Cn1cnc2c(N)nc3ccccc3c21` [imiquimod, 1-(2-methylpropyl)-1H-imidazo[4,5-c]quinolin-4-amine] as the molecule, how does the LD50 ([1]; Monkey, intravenous bolus) read?
Answer: >6 mg/kg

Question: What about the LD50 ([1]; Monkey, intravenous infusion) of the same molecule?
Answer: ≈8 mg/kg

Question: What about the LD50 ([1]; Monkey, oral) of the same molecule?
Answer: >200 mg/kg

Question: What about the LD50 ([1]; Rat, subcutaneous) of the same molecule?
Answer: ≈20 mg/kg

Question: What about the “Single dose toxicity signs” value ([1]; oral, intraperitoneal, subcutaneous or intravenous, lethal doses) of the same molecule?
Answer: central nervous system (CNS) stimulation and convulsions

Question: What about the “Dose up to which no systemic toxicity was found” value ([2]; three days per week for 4 weeks) of the same molecule?
Answer: 5 mg/kg

Question: And the “Dose up to which no systemic toxicity was found” value ([2]; three days per week for 16 weeks)?
Answer: 2.5 mg/kg
